Laboratory results from patent US20240059671A1, “TYROSINE KINASE 2 (TYK2) DEGRADATION COMPOUNDS AND METHODS OF USE” (CULLGEN (SHANGHAI), INC., priority 2020, published 2024).

Target: TYK2 (Homo sapiens, UniProt P29597)
Assay: TYK2 protein degradation in NOMO-1 cells by immunoblotting
Format: cell-based
Design: endogenous in cells
Conditions: NOMO-1 cells
Method in brief: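 Read-out was densitometry of chemiluminescent TYK2 immunoblot bands from RIPA lysates after SDS-PAGE. Before lysis, NOMO-1 cells cultured in RPMI 1640 plus 10% FBS were treated for 16 h at 0.1, 1, 10, 100 and 1000 nM.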

Sequence of TYK2 (P29597 whole entry): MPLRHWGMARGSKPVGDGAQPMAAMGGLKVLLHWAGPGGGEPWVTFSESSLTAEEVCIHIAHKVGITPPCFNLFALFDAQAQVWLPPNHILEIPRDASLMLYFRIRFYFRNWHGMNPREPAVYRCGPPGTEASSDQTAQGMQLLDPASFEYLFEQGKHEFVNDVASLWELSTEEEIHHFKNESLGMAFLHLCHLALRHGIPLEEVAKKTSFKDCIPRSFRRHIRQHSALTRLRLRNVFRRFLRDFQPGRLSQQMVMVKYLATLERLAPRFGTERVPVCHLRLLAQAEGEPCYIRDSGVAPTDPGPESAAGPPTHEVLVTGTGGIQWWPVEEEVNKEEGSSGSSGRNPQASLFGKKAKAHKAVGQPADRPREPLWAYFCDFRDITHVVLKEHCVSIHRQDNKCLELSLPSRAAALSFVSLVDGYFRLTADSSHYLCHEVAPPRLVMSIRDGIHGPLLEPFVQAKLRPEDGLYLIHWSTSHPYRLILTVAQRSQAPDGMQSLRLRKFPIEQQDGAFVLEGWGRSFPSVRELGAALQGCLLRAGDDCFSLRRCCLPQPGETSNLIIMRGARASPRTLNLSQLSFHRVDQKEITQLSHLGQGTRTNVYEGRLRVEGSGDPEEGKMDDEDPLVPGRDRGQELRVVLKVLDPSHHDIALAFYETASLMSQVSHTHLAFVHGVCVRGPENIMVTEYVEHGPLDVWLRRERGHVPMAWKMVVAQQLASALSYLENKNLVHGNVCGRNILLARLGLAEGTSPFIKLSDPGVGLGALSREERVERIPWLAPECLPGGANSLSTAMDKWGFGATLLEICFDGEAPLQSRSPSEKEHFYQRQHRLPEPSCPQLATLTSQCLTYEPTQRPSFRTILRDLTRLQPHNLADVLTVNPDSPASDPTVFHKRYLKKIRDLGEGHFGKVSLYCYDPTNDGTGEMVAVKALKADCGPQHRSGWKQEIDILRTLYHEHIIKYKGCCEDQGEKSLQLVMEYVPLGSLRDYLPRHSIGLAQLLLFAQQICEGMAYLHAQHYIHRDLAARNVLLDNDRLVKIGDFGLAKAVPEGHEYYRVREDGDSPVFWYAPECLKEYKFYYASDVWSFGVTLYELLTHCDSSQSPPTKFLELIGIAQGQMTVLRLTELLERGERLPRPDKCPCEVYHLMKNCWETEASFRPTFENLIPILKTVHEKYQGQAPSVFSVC

| Compound | TYK2 Degradation (NOMO-1, 100 nM) | TYK2 Degradation (NOMO-1, 10 nM) |
| --- | --- | --- |
| CNC(=O)c1nnc(Nc2ccc(N3CCN(C4CCN(C(=O)CCC(=O)N[C@H](C(=O)N5C[C@H](O)C[C@H]5C(=O)N[C@@H](C)c5ccc(-c6scnc6C)cc5)C(C)(C)C)CC4)CC3)cn2)cc1Nc1cccc(-c2ncn(C)n2)c1OC [CPD-145, 6-((5-(4-(1-(4-(((S)-1-((2S,4R)-4-Hydroxy-2-(((S)-1-(4-(4-methylthiazol-5-yl)phenyl)ethyl)carbamoyl)pyrrolidin-1-yl)-3,3-dimethyl-1-oxobutan-2-yl)amino)-4-oxobutanoyl)piperidin-4-yl)piperazin-1-yl)pyridin-2-yl)amino)-4-((2-methoxy-3-(1-methyl-1H-1,2,4-triazol-3-yl)phenyl)amino)-N-methylpyridazine-3-carboxamide] | B (B: <60% TYK2 degradation, and >20% TYK2 degradation) | – |
| CNC(=O)c1nnc(Nc2ccc(N3CCN(C(=O)CCCCCCCCC(=O)N[C@H](C(=O)N4C[C@H](O)C[C@H]4C(=O)N[C@@H](C)c4ccc(-c5scnc5C)cc4)C(C)(C)C)CC3)cn2)cc1Nc1cccc(-c2ncn(C)n2)c1OC [CPD-114, 6-((5-(4-(10-(((S)-1-((2S,4R)-4-hydroxy-2-(((S)-1-(4-(4-methylthiazol-5-yl)phenyl)ethyl)carbamoyl)pyrrolidin-1-yl)-3,3-dimethyl-1-oxobutan-2-yl)amino)-10-oxodecanoyl)piperazin-1-yl)pyridin-2-yl)amino)-4-((2-methoxy-3-(1-methyl-1H-1,2,4-triazol-3-yl)phenyl)amino)-N-methylpyridazine-3-carboxamide] | A (A: ≥60% TYK2 degradation) | A (A: ≥60% TYK2 degradation) |
| CNC(=O)c1nnc(Nc2ccc(C#CC3CN(C(=O)CCC(=O)N[C@H](C(=O)N4C[C@H](O)C[C@H]4C(=O)N[C@@H](C)c4ccc(-c5scnc5C)cc4)C(C)(C)C)C3)cn2)cc1Nc1cccc(-c2ncn(C)n2)c1OC [CPD-122, 6-((5-((1-(4-(((S)-1-((2S,4R)-4-Hydroxy-2-(((S)-1-(4-(4-methylthiazol-5-yl)phenyl)ethyl)carbamoyl)pyrrolidin-1-yl)-3,3-dimethyl-1-oxobutan-2-yl)amino)-4-oxobutanoyl)azetidin-3-yl)ethynyl)pyridin-2-yl)amino)-4-((2-methoxy-3-(1-methyl-1H-1,2,4-triazol-3-yl)phenyl)amino)-N-methylpyridazine-3-carboxamide] | C (C: ≤20% TYK2 degradation) | – |
| CNC(=O)c1nnc(Nc2ccc(N3CCN(C(=O)CCCCCCC(=O)N[C@H](C(=O)N4C[C@H](O)C[C@H]4C(=O)N[C@H]4CCCc5[nH]c(=O)c(C)cc54)C(C)(C)C)CC3)cn2)cc1Nc1cccc(-c2ncn(C)n2)c1OC [CDD-174, 6-((5-(4-(8-(((S)-1-((2S,4R)-4-hydroxy-2-(((S)-3-methyl-2-oxo-1,2,5,6,7,8-hexahydroquinolin-5-yl)carbamoyl)pyrrolidin-1-yl)-3,3-dimethyl-1-oxobutan-2-yl)amino)-8-oxooctanoyl)piperazin-1-yl)pyridin-2-yl)amino)-4-((2-methoxy-3-(1-methyl-1H-1,2,4-triazol-3-yl)phenyl)amino)-N-methylpyridazine-3-carboxamide] | C (C: ≤20% TYK2 degradation) | C (C: ≤20% TYK2 degradation) |
| CNC(=O)c1nnc(Nc2ccc(CNC(=O)CCCCC(=O)N[C@H](C(=O)N3C[C@H](O)C[C@H]3C(=O)N[C@@H](C)c3ccc(-c4scnc4C)cc3)C(C)(C)C)cn2)cc1Nc1cccc(-c2ncn(C)n2)c1OC [CPD-129, N1-((S)-1-((2S,4R)-4-Hydroxy-2-(((S)-1-(4-(4-methylthiazol-5-yl)phenyl)ethyl)carbamoyl)pyrrolidin-1-yl)-3,3-dimethyl-1-oxobutan-2-yl)-N6-((6-((5-((2-methoxy-3-(1-methyl-1H-1,2,4-triazol-3-yl)phenyl)amino)-6-(methylcarbamoyl)pyridazin-3-yl)amino)pyridin-3-yl)methyl)adipamide] | A (A: ≥60% TYK2 degradation) | C (C: ≤20% TYK2 degradation) |
| CNC(=O)c1nnc(Nc2ccc(C(=O)NCCCCCC(=O)N[C@H](C(=O)N3C[C@H](O)C[C@H]3C(=O)N[C@@H](C)c3ccc(-c4scnc4C)cc3)C(C)(C)C)cn2)cc1Nc1cccc(-c2ncn(C)n2)c1OC [CPD-141, 6-((5-((6-(((S)-1-((2S,4R)-4-Hydroxy-2-(((S)-1-(4-(4-methylthiazol-5-yl)phenyl)ethyl)carbamoyl)pyrrolidin-1-yl)-3,3-dimethyl-1-oxobutan-2-yl)amino)-6-oxohexyl)carbamoyl)pyridin-2-yl)amino)-4-((2-methoxy-3-(1-methyl-1H-1,2,4-triazol-3-yl)phenyl)amino)-N-methylpyridazine-3-carboxamide] | A (A: ≥60% TYK2 degradation) | B (B: <60% TYK2 degradation, and >20% TYK2 degradation) |
| CNC(=O)c1nnc(Nc2ccc(C#CC3CN(C(=O)CCCCCCCCC(=O)N[C@H](C(=O)N4C[C@H](O)C[C@H]4C(=O)N[C@@H](C)c4ccc(-c5scnc5C)cc4)C(C)(C)C)C3)cn2)cc1Nc1cccc(-c2ncn(C)n2)c1OC [CPD-127, 6-((5-((1-(10-(((S)-1-((2S,4R)-4-hydroxy-2-(((S)-1-(4-(4-methylthiazol-5-yl)phenyl)ethyl)carbamoyl)pyrrolidin-1-yl)-3,3-dimethyl-1-oxobutan-2-yl)amino)-10-oxodecanoyl)azetidin-3-yl)ethynyl)pyridin-2-yl)amino)-4-((2-methoxy-3-(1-methyl-1H-1,2,4-triazol-3-yl)phenyl)amino)-N-methylpyridazine-3-carboxamide] | A (A: ≥60% TYK2 degradation) | A (A: ≥60% TYK2 degradation) |
| CNC(=O)c1nnc(Nc2ccc(CNC(=O)CCCCCC(=O)N[C@H](C(=O)N3C[C@H](O)C[C@H]3C(=O)N[C@@H](C)c3ccc(-c4scnc4C)cc3)C(C)(C)C)cn2)cc1Nc1cccc(-c2ncn(C)n2)c1OC [CPD-130, N1-((S)-1-((2S,4R)-4-Hydroxy-2-(((S)-1-(4-(4-methylthiazol-5-yl)phenyl)ethyl)carbamoyl)pyrrolidin-1-yl)-3,3-dimethyl-1-oxobutan-2-yl)-N7-((6-((5-((2-methoxy-3-(1-methyl-1H-1,2,4-triazol-3-yl)phenyl)amino)-6-(methylcarbamoyl)pyridazin-3-yl)amino)pyridin-3-yl)methyl)heptanediamide] | B (B: <60% TYK2 degradation, and >20% TYK2 degradation) | – |

The remaining lines, values ahead:

| TYK2 Degradation (NOMO-1, 100 nM) | TYK2 Degradation (NOMO-1, 10 nM) | Compound |
| --- | --- | --- |
| C (C: ≤20% TYK2 degradation) | – | CNC(=O)c1nnc(Nc2ccc(C#CC3CCN(CCCCC(=O)N[C@H](C(=O)N4C[C@H](O)C[C@H]4C(=O)N[C@@H](C)c4ccc(-c5scnc5C)cc4)C(C)(C)C)CC3)cn2)cc1Nc1cccc(-c2ncn(C)n2)c1OC [CPD-160, 6-((5-((1-(5-(((S)-1-((2S,4R)-4-hydroxy-2-(((S)-1-(4-(4-methylthiazol-5-yl)phenyl)ethyl)carbamoyl)pyrrolidin-1-yl)-3,3-dimethyl-1-oxobutan-2-yl)amino)-5-oxopentyl)piperidin-4-yl)ethynyl)pyridin-2-yl)amino)-4-((2-methoxy-3-(1-methyl-1H-1,2,4-triazol-3-yl)phenyl)amino)-N-methylpyridazine-3-carboxamide] |
| A (A: ≥60% TYK2 degradation) | A (A: ≥60% TYK2 degradation) | CNC(=O)c1nnc(Nc2ccc(CNC(=O)CCCCCCCCC(=O)N[C@H](C(=O)N3C[C@H](O)C[C@H]3C(=O)N[C@@H](C)c3ccc(-c4scnc4C)cc3)C(C)(C)C)cn2)cc1Nc1cccc(-c2ncn(C)n2)c1OC [CPD-133, N1-((S)-1-((2S,4R)-4-hydroxy-2-(((S)-1-(4-(4-methylthiazol-5-yl)phenyl)ethyl)carbamoyl)pyrrolidin-1-yl)-3,3-dimethyl-1-oxobutan-2-yl)-N10-((6-((5-((2-methoxy-3-(1-methyl-1H-1,2,4-triazol-3-yl)phenyl)amino)-6-(methylcarbamoyl)pyridazin-3-yl)amino)pyridin-3-yl)methyl)decanediamide] |
| A (A: ≥60% TYK2 degradation) | A (A: ≥60% TYK2 degradation) | CNC(=O)c1nnc(Nc2ccc(N3CCN(C4CCN(C(=O)CCCCCCCCC(=O)N[C@H](C(=O)N5C[C@H](O)C[C@H]5C(=O)N[C@@H](C)c5ccc(-c6scnc6C)cc5)C(C)(C)C)CC4)CC3)cn2)cc1Nc1cccc(-c2ncn(C)n2)c1OC [CPD-151, 6-((5-(4-(1-(10-(((S)-1-((2S,4R)-4-hydroxy-2-(((S)-1-(4-(4-methylthiazol-5-yl)phenyl)ethyl)carbamoyl)pyrrolidin-1-yl)-3,3-dimethyl-1-oxobutan-2-yl)amino)-10-oxodecanoyl)piperidin-4-yl)piperazin-1-yl)pyridin-2-yl)amino)-4-((2-methoxy-3-(1-methyl-1H-1,2,4-triazol-3-yl)phenyl)amino)-N-methylpyridazine-3-carboxamide] |
| A (A: ≥60% TYK2 degradation) | – | CNC(=O)c1nnc(Nc2ccc(C(=O)NCCNc3cccc4c3C(=O)N(C3CCC(=O)NC3=O)C4=O)cn2)cc1Nc1cccc(-c2ncn(C)n2)c1OC (stereo not drawn) [CPD-152, 6-((5-((2-((2-(2,6-Dioxopiperidin-3-yl)-1,3-dioxoisoindolin-4-yl)amino)ethyl)carbamoyl)pyridin-2-yl)amino)-4-((2-methoxy-3-(1-methyl-1H-1,2,4-triazol-3-yl)phenyl)amino)-N-methylpyridazine-3-carboxamide] |
| A (A: ≥60% TYK2 degradation) | C (C: ≤20% TYK2 degradation) | CNC(=O)c1nnc(Nc2ccc(C(=O)NCCCCC(=O)N[C@H](C(=O)N3C[C@H](O)C[C@H]3C(=O)N[C@@H](C)c3ccc(-c4scnc4C)cc3)C(C)(C)C)cn2)cc1Nc1cccc(-c2ncn(C)n2)c1OC [CPD-140, 6-((5-((5-(((S)-1-((2S,4R)-4-Hydroxy-2-(((S)-1-(4-(4-methylthiazol-5-yl)phenyl)ethyl)carbamoyl)pyrrolidin-1-yl)-3,3-dimethyl-1-oxobutan-2-yl)amino)-5-oxopentyl)carbamoyl)pyridin-2-yl)amino)-4-((2-methoxy-3-(1-methyl-1H-1,2,4-triazol-3-yl)phenyl)amino)-N-methylpyridazine-3-carboxamide] |
